We go through one molecule from paper PMC4914680 (Antimicrobial Agents and Chemotherapy, 2016).

Structures are written as SMILES. Where two headings read alike, the source gives them in different places.

One series has as its system HIV-1 HXB2. Nature of the series: Multiple-cycle assay, laboratory strains. The series is classed as cell-based. The following applies: Human immunodeficiency virus 1; HXB2, CXCR4, MT-2.
Series [1] deals with HIV-1 subtype D clinical isolates. Nature of the series: Drug susceptibility assay using clinical isolates in PBMCs. The following applies: Human immunodeficiency virus 1, PBMC.
The conditions of series [2]: human, serum.
Series [3] relates to HIV-1 subtype CRF01_AE clinical isolates. Kind of series: Drug susceptibility assay using clinical isolates in PBMCs. The following applies: Human immunodeficiency virus 1, PBMC.
For series [4], the system named is HIV-1 subtype A clinical isolates. Described as above. The note with it: Human immunodeficiency virus 1, PBMC.
In series [5] the target is WT HIV-1 VLPs, p25 to p24 (CA/SP1) cleavage (Human immunodeficiency virus type 1 group M subtype B, UniProt P03348). Kind of series: HIV-1 VLP protease cleavage assay. The series is classed as biochemical. The following applies: Western blot.
In another series the test system is HIV-2 CBL-20. Nature of the series: Multiple-cycle assay, laboratory strains. The series is classed as cell-based. The note with it: HIV-2 CBL-20, MT-2.
In series [6] the test system is HIV-LAI envelope-pseudotyped RepRlucP373SΔenv virus. Nature of the series: Two-stage single-cycle pseudotype assay (HIV-1 entry assay). It counts as cell-based.
In series [7] the test system is V370M virus (recombinant virus with gag/pr genes from a clinical isolate). Nature of the series: microbe, parasite or virus in culture. The series is classed as cell-based, HIV-1. The note with it: Human immunodeficiency virus 1, MT2, read-out: EC50 (SD).
The next series relates to HIV-1 NL4-3. Kind of series: Multiple-cycle assay, laboratory strains. The following applies: Human immunodeficiency virus 1, NL43; NL4-3, CXCR4, MT-2. The series is classed as cell-based.
The next series relates to HIV-2 ROD. Nature of the series: Multiple-cycle assay, laboratory strains. It counts as cell-based. The following applies: Human immunodeficiency virus 2, MT-2.

On to `C=C(C)[C@@H]1CC[C@]2(NCCN3CCS(=O)(=O)CC3)CC[C@]3(C)[C@H](CC[C@@H]4[C@@]5(C)CC=C(c6ccc(C(=O)O)cc6)C(C)(C)[C@@H]5CC[C@]43C)[C@@H]12` [BMS-955176], for which the EC50 with HIV-1 HXB2 is 11 ± 2 nM; in series [1] (read-out: Median EC50) it was 6 nM; in [1] (read-out: Range EC50), 1 to 21 nM; in series [3] (read-out: Mean EC50 ± SD, PBMCs, AE, 7 isolates), 77 ± 46 nM; in series [3] (read-out: Range EC50, PBMCs, AE, 7 isolates) it was 10 to 139 nM; in [4] (PBMCs, one less sensitive subtype A isolate), 280 nM. Besides, the EC50 in series [4] (read-out: Mean EC50 ± SD, PBMCs, A, 13 of 14 isolates) is 26 ± 25 nM; in [4] (read-out: Mean EC50 ± SD, PBMCs, A, 14 isolates), 44 ± 72 nM; in series [4] (read-out: Median EC50, PBMCs, A, 13 of 14 isolates) it was 20 nM; in [4] (read-out: Median EC50, PBMCs, A, 14 isolates), 21 nM; in series [4] (read-out: Range EC50, PBMCs, A, 13 of 14 isolates), 5 to 87 nM; in series [4] (read-out: Range EC50, PBMCs, A, 14 isolates) it was 5 to 280 nM. Moreover, the EC50 in series [4] (read-out: median EC50 values, Fig 7, PBMCs, A (Group M)) is 20000 nM; in the series with HIV-2 CBL-20, “completely resistant”; in the series on HIV-2 CBL-20 (Human immunodeficiency virus 2, read-out: EC50), over 1200 nM; in [7], 10 nM; in the series with HIV-1 NL4-3, 4.7 ± 2.3 nM; in the series with HIV-2 ROD it was 15 ± 1.2 nM. This molecule also had a fraction unbound in series [2] of 0.18. Further, the “inhibition of conversion of VLP p25 to p24” value in [5] is recorded as “inhibited the conversion of HIV-1 WT VLP p25 to p24 in a dose-dependent manner”. Also, the “inhibition of luciferase, compound added at stage 1 (virus production)” value in [6] was “inhibiting luciferase production only when added in the first stage”. In addition, the “inhibition of luciferase, compound added at stage 2 (infection)” value in series [6] is reported as “inhibiting luciferase production only when added in the first stage”.

One may read the EC50 as the concentration that produces a half-maximal response. For orientation: fraction unbound means free concentration divided by total concentration. A lower fraction unbound goes with extensive binding.
